Legend:
Assay type in all cases: functional, cell-based
HL-60 = test: Cytotoxicity against human HL60 cells after 48 hrs by MTT assay; settings: HL-60, 48 h
A549 = test: Cytotoxicity against human A549 cells after 48 hrs by MTT assay; settings: A549, 48 h
MCF7 = test: Cytotoxicity against human MCF7 cells after 48 hrs by MTT assay; settings: MCF7, 48 h
SW480 = test: Cytotoxicity against human SW480 cells after 48 hrs by MTT assay; settings: SW480, 48 h
SMMC-7721 = test: Cytotoxicity against human SMMC7721 cells after 48 hrs by MTT assay; settings: SMMC-7721, 48 h

Row | SMILES | IC50 (HL-60) [µM] | IC50 (A549) [µM] | IC50 (MCF7) [µM] | IC50 (SW480) [µM] | IC50 (SMMC-7721) [µM]
1 | C=CC(=C)CC[C@@H]1[C@@]2(C)CCC[C@](C)(COC(=O)/C=C\c3ccc(O)c(OC)c3)[C@@H]2CC[C@@]1(C)O | 9.1 | 17.3 | 15.4 | 17.6 | 7.5
2 | C=CC(=C)CC[C@@H]1[C@@]2(C)CCC[C@](C)(COC(=O)/C=C/c3ccc(O)cc3)[C@@H]2CC[C@@]1(C)O | 11.8 | 20.4 | 16.6 | 19.3 | 15.5
3 | CC(C)c1cc2c(cc1O)[C@@]1(CO)CCCC(C)(C)[C@H]1CC2 | 15.5 | 20.7 | 15 | 15.1 | 15.2
4 | CC(C)C1=C[C@]2(O)CC[C@H]3C(C)(C)CCC[C@]3(O)CC2=CC1=O | > 40 | > 40 | > 40 | > 40 | > 40
5 | C=C/C(C)=C/C[C@H]1C(=C)CC[C@@H]2[C@]1(C)CCC[C@]2(C)C(=O)O | > 40 | > 40 | > 40 | > 40 | > 40
6 | CC(C)c1cc2c(cc1O)[C@@]1(CO)CCCC(C)(C)[C@@H]1CC2 [PISIFEROL] | > 40 | > 40 | > 40 | > 40 | > 40
7 | C=C1CC[C@@H]2[C@](C)(CCC[C@]2(C)C(=O)O)[C@H]1C/C=C(\C)C=O | > 40 | > 40 | > 40 | > 40 | > 40
8 | C=C[C@]1(C)C=C2CC[C@H]3[C@](C)(COC(C)=O)CCC[C@]3(C)[C@H]2[C@H](O)C1 | > 40 | > 40 | > 40 | > 40 | > 40
9 | C=C[C@]1(C)C=C2CC[C@H]3C(C)(C)[C@@H](O)CC[C@]3(C)[C@H]2[C@H](O)C1 | > 40 | > 40 | > 40 | > 40 | > 40
10 | C=C[C@@]1(C)O[C@H]1C[C@H]1C(=C)CC[C@@H]2[C@]1(C)CCC[C@]2(C)C(=O)O | > 40 | > 40 | > 40 | > 40 | > 40
11 | C=C[C@]1(C)C=C2CC[C@H]3[C@](C)(CO)CCC[C@]3(C)[C@H]2[C@H](O)C1 | > 40 | > 40 | > 40 | > 40 | > 40
12 | C=C1CC[C@@H]2[C@](C)(CCC[C@]2(C)C(=O)O)[C@H]1CC/C(C)=C/CO [ISOCUPRESSIC ACID] | > 40 | > 40 | > 40 | > 40 | > 40
13 | C=C[C@]1(C)O[C@H]1C[C@H]1C(=C)CC[C@@H]2[C@]1(C)CCC[C@]2(C)C(=O)O | > 40 | > 40 | > 40 | > 40 | > 40
14 | C=C1CC[C@@H]2[C@](C)(CCC[C@@]2(C)C(=O)O)[C@H]1CC/C(C)=C/COC(C)=O | > 40 | > 40 | > 40 | > 40 | > 40
15 | CC(C)c1cc2c(cc1O)[C@@]1(C)CCCC(C)(C)[C@@H]1CC2 [FERRUGINOL] | > 40 | > 40 | > 40 | > 40 | > 40
16 | C=C[C@]1(C)C=C2CC[C@@H]3[C@](C)(CCC[C@@]3(C)C(=O)O)[C@H]2CC1 [SANDARACOPIMARIC ACID] | > 40 | > 40 | > 40 | > 40 | > 40
17 | C=C[C@]1(C)C=C2CC[C@H]3C(C)(C)[C@@H](O)CC[C@]3(C)[C@H]2[C@H](OC(C)=O)C1 | > 40 | > 40 | > 40 | > 40 | > 40
18 | C=CC(=C)[C@H](O)C[C@H]1C(=C)CC[C@@H]2[C@]1(C)CCC[C@]2(C)C(=O)O | > 40 | > 40 | > 40 | > 40 | > 40
19 | C=CC(=C)[C@@H](O)C[C@H]1C(=C)CC[C@@H]2[C@]1(C)CCC[C@]2(C)C(=O)O | > 40 | > 40 | > 40 | > 40 | > 40
20 | C=C1CC[C@@H]2[C@](C)(CCC[C@]2(C)C(=O)O)[C@H]1CCC1=CCOC1=O [PINUSOLIDIC ACID] | > 40 | > 40 | > 40 | > 40 | > 40
21 | C=C[C@@](C)(O)CC[C@H]1C(=C)CC[C@@H]2[C@]1(C)CCC[C@]2(C)C(=O)O | > 40 | > 40 | > 40 | > 40 | > 40
22 | C=CC(=C)CC[C@@H]1[C@@]2(C)CCC[C@](C)(COC(=O)/C=C\c3ccc(O)cc3)[C@@H]2CC[C@@]1(C)O | 14.1 | 17.1 | 15.1 | 13.6 | 16.2
23 | C=C[C@@]1(C)C=C[C@H]2C(=C1)[C@H](O)C[C@H]1[C@](C)(CO)CCC[C@]21C | > 40 | > 40 | > 40 | > 40 | > 40
24 | CC(C)c1cc2c(cc1O)[C@@]1(C=O)CCCC(C)(C)[C@@H]1CC2 [PISIFERAL] | 14.3 | 21 | 15.6 | 14.4 | 19.7
25 | C=C/C(C)=C/C[C@H]1C(=C)CC[C@@H]2[C@]1(C)CCC[C@]2(C)C=O | > 40 | > 40 | > 40 | > 40 | > 40
26 | C=C[C@]1(C)C=C2CC[C@H]3[C@](C)(CO)[C@@H](O)CC[C@]3(C)[C@H]2CC1 [SANDARACOPIMARADIENEDIOL] | > 40 | > 40 | > 40 | > 40 | > 40
27 | C=CC(=C)CC[C@@H]1[C@@]2(C)CCC[C@](C)(COC(=O)/C=C/c3ccc(O)c(OC)c3)[C@@H]2CC[C@@]1(C)O | 14.3 | 16.8 | 13.5 | 16.9 | 14.1
28 | C=C[C@]1(C)C=C2CC[C@H]3C(C)(C)CCC[C@]3(C)[C@H]2[C@H](O)C1 | > 40 | > 40 | > 40 | > 40 | > 40
